Data published in publication PMC3944532, “Mode of Action of Diterpene and Characterization of Related Metabolites from the Soft Coral, Xenia elongata” (Marine Drugs, 2014).
Read-outs that look alike come from different tables or passages of the source.

How the values were obtained:
[1] = test system: D3 cells; experiment: Apoptosis induction assay (MTT viability), apoptosis resistant D3 cells deficient in Bak and Bax; format: cell-based, mouse
Protocol: In order to assess the pro-apoptotic activities of these compounds as a marker for their potential anticancer efficacy, methanol soluble fractions of Xenia extracts were tested for apoptosis induction in an MTT assay using the apoptosis competent W2 and apoptosis resistant D3 cells, as described in our previous work. […] To quantify apoptosis induction, viability was determined using an MTT assay. Measurements were taken at time 0 and 48 h after addition of compounds in different concentrations. Viability was calculated as the difference between time 0 (addition of compound) and 48 h. Apoptosis induction was defined as at least 20% death of W2 cells and a 10% or higher growth of D3 cells by MTT assay. The optimal concentration of the compounds for apoptosis induction was determined based on the dose response of the two cells lines by MTT assay. […]
Apoptosis induction in the presence of compounds (2, 3) was carried out in the following manner. […] Cell viability was determined using a modification of the MTT assay, where the reduction of yellow tertazolium salt (MTT—[…]) to purple formazan indicates mitochondrial activity, and thus cell viability. […] After 30 min incubation at 37 °C, with shaking, absorbance was read at 570 nm on a Spectra MAX 250 (Molecular Devices) plate reader. Differential growth from time 0 to 48 h was calculated. […]

[2] = test system: W2 cells; experiment: Apoptosis induction assay (MTT viability), apoptosis competent W2 cells; format: cell-based, mouse; details: for optimal concentration for apoptosis induction: MTT, 0 to 48 h, apoptosis induction = at least 20% death of W2 cells and 10% or higher growth of D3 cells; for cell death in W2 cells: apoptosis competent W2
Protocol: In order to assess the pro-apoptotic activities of these compounds as a marker for their potential anticancer efficacy, methanol soluble fractions of Xenia extracts were tested for apoptosis induction in an MTT assay using the apoptosis competent W2 and apoptosis resistant D3 cells, as described in our previous work. […] To quantify apoptosis induction, viability was determined using an MTT assay. Measurements were taken at time 0 and 48 h after addition of compounds in different concentrations. Viability was calculated as the difference between time 0 (addition of compound) and 48 h. Apoptosis induction was defined as at least 20% death of W2 cells and a 10% or higher growth of D3 cells by MTT assay. The optimal concentration of the compounds for apoptosis induction was determined based on the dose response of the two cells lines by MTT assay. […] Treatment of W2 and D3 cells with 0.1 µM staurosporine, a protein kinase inhibitor and potent inducer of apoptosis, was included as a positive control for apoptosis induction and for comparison. Thus, the diterpenes we have isolated and characterized effectively and specifically activate apoptosis in immortalized mammalian epithelial cells.
Apoptosis induction in the presence of compounds (2, 3) was carried out in the following manner. W2 (apoptosis competent) and D3 (apoptosis defective) cells were plated in 96- and 6-well plates and incubated for 24 h, after which they were evenly spread at about 50% confluency. At this time, compounds dissolved in DMSO and diluted in growth medium (DMEM) were added to the cells at various concentrations. DMSO concentration was kept at 0.5% in all wells. Plates were incubated for 24, 48 and 72 h. Cell viability was determined using a modification of the MTT assay, where the reduction of yellow tertazolium salt (MTT—[…]) to purple formazan indicates mitochondrial activity, and thus cell viability. Cells were incubated with 0.5 mg/mL MTT for 3 h. Supernatant was aspirated and DMSO was added to dissolve the formazan crystals. After 30 min incubation at 37 °C, with shaking, absorbance was read at 570 nm on a Spectra MAX 250 (Molecular Devices) plate reader. Differential growth from time 0 to 48 h was calculated. Starurosporine, an apoptosis inducer, and DMSO were used as positive and negative controls, respectively.

[3] = biological target: HDAC5 (Homo sapiens, UniProt Q9UQL6); experiment: HDAC inhibition assay, class II A, fluorogenic HDAC Class2a substrate; details: up to 100 µM
[4] = biological target: HDAC3 (Homo sapiens, UniProt O15379); experiment: HDAC inhibition assay, class I, fluorogenic peptide RHKK(Ac)AMC; format: biochemical; details: up to 50 µM
[5] = biological target: T1, HDAC6 (Homo sapiens, UniProt Q9UBN7); experiment: HDAC inhibition assay, class II B, fluorogenic peptide RHKK(Ac)AMC; format: biochemical
T1 sequence (Q9UBN7 1-1215): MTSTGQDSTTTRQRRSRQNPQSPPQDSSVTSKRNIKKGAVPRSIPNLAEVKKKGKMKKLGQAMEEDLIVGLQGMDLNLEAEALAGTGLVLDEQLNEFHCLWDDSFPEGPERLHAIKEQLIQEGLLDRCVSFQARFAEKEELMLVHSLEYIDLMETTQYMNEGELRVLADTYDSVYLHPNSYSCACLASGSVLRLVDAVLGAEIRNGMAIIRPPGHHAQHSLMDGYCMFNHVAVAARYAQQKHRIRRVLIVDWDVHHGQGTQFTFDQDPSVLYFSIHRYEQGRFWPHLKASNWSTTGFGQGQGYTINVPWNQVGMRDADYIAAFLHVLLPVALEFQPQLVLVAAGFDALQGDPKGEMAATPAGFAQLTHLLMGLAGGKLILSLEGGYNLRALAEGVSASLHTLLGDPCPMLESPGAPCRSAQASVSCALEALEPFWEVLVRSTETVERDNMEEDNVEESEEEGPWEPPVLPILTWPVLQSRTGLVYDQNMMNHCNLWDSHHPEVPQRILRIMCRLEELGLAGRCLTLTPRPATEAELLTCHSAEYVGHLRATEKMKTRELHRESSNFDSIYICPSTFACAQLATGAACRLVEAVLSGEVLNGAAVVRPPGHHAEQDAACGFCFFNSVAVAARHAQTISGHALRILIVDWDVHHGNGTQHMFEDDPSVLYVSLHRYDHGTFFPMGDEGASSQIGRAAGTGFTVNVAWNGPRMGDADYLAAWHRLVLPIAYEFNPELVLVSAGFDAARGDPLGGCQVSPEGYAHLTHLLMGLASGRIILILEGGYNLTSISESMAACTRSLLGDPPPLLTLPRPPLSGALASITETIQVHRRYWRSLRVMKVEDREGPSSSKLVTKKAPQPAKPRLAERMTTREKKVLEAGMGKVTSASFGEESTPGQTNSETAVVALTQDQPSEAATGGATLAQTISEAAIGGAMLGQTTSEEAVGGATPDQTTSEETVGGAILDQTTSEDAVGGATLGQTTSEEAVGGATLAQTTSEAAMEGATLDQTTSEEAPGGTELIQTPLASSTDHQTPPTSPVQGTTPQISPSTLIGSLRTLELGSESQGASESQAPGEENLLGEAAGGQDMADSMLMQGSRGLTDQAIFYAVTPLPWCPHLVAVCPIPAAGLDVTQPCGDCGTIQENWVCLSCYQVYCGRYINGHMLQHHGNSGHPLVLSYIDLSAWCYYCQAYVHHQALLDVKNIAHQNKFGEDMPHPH

[6] = biological target: HDAC2 (Homo sapiens, UniProt Q92769); experiment: HDAC inhibition assay, class I, fluorogenic peptide RHKK(Ac)AMC; format: biochemical; details: up to 50 µM
[7] = biological target: HDAC4 (Homo sapiens, UniProt P56524); experiment: HDAC inhibition assay, class II A, fluorogenic HDAC Class2a substrate; details: up to 100 µM
[8] = biological target: T2, HDAC7 (Homo sapiens, UniProt Q8WUI4); experiment: as above; details: up to 100 µM
T2 sequence (Q8WUI4 1-952): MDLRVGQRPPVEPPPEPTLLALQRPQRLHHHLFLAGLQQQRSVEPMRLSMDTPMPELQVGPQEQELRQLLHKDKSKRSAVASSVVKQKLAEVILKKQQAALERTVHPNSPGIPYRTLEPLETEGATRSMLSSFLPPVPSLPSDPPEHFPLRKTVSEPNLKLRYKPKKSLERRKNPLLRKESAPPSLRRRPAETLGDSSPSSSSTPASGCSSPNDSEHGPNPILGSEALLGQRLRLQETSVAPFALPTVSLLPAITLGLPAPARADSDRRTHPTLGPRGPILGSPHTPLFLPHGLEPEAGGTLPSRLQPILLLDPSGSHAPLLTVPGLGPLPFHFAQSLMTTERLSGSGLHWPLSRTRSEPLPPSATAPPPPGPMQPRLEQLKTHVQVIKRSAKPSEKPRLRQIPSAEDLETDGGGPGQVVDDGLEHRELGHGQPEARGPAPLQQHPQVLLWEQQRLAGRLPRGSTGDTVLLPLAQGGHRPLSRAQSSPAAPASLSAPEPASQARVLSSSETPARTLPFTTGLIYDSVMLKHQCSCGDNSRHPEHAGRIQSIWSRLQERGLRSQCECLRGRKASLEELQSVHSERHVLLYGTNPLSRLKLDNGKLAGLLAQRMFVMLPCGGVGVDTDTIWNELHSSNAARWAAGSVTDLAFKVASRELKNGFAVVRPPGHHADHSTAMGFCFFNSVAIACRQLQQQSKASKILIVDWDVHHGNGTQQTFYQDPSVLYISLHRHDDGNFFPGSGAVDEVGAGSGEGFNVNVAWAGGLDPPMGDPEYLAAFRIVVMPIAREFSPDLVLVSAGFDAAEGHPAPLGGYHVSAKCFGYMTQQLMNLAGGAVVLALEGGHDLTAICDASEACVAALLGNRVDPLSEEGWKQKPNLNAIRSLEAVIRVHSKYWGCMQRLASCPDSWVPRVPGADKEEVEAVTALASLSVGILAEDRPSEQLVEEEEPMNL

[9] = biological target: HDAC9 (Homo sapiens, UniProt Q9UKV0); experiment: as above; details: up to 100 µM
[10] = biological target: T3, HDAC8 (Homo sapiens, UniProt Q9BY41); experiment: HDAC inhibition assay, class I, fluorogenic peptide RHK(Ac)K(Ac)AMC; format: biochemical; details: up to 50 µM
T3 sequence (Q9BY41 1-377): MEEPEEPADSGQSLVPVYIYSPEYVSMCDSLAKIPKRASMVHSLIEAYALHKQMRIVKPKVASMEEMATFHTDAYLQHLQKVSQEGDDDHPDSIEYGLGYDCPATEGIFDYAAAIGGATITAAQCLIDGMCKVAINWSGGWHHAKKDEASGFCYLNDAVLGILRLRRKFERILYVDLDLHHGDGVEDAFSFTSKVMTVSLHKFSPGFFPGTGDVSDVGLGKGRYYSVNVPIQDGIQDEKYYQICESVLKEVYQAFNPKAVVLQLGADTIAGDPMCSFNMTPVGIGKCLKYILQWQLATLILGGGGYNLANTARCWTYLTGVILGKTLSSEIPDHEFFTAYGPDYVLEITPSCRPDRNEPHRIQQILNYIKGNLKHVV

[11] = biological target: HDAC1 (Homo sapiens, UniProt Q13547); experiment: HDAC inhibition assay, class I, fluorogenic peptide RHKK(Ac)AMC; format: biochemical; details: up to 50 µM
[12] = test system: P-388; details: P-388 cells; cited from earlier work
[13] = test system: A549; details: A549 cells; cited from earlier work
[14] = test system: HT-29; details: HT-29 cells; cited from earlier work

Sequence of HDAC2 (Q92769 whole entry): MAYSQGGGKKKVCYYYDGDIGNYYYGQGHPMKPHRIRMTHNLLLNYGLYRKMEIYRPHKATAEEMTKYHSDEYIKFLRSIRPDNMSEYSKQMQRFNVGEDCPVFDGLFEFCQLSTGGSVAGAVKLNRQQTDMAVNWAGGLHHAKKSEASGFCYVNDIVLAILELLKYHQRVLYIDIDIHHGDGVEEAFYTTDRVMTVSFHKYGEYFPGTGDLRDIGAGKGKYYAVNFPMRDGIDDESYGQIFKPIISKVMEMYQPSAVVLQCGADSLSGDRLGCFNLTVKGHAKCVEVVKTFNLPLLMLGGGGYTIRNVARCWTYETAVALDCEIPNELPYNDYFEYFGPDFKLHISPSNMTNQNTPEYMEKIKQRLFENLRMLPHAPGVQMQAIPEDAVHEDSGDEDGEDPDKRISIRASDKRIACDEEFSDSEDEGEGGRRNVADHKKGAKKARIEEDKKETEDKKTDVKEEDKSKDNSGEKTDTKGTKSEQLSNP
Sequence of HDAC9 (Q9UKV0 whole entry): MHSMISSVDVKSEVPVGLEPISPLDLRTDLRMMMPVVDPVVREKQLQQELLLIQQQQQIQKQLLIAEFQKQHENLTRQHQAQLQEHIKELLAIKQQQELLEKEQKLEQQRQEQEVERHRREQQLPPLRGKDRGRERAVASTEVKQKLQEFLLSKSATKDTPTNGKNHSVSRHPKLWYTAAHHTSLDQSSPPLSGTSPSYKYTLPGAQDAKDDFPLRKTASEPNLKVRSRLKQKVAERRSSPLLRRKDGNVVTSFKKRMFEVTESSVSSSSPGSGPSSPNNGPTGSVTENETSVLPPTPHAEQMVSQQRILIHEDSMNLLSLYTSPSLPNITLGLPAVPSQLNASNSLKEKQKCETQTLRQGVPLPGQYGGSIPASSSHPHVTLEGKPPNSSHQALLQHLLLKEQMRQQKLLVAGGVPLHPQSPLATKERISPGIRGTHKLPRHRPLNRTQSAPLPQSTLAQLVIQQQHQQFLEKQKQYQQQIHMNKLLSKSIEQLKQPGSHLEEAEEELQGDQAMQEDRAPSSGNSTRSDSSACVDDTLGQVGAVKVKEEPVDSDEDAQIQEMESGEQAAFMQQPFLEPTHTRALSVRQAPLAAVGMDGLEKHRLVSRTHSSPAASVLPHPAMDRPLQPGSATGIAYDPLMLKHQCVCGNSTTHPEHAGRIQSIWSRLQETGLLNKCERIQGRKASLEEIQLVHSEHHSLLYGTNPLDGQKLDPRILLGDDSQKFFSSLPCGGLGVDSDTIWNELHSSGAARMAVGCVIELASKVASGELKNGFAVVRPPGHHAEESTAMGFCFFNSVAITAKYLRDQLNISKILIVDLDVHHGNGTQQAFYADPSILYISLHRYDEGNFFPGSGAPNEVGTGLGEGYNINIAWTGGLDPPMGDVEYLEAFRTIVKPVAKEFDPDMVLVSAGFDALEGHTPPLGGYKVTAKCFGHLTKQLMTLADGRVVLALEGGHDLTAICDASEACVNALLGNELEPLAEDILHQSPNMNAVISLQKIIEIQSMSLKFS
Sequence of HDAC1 (Q13547 whole entry): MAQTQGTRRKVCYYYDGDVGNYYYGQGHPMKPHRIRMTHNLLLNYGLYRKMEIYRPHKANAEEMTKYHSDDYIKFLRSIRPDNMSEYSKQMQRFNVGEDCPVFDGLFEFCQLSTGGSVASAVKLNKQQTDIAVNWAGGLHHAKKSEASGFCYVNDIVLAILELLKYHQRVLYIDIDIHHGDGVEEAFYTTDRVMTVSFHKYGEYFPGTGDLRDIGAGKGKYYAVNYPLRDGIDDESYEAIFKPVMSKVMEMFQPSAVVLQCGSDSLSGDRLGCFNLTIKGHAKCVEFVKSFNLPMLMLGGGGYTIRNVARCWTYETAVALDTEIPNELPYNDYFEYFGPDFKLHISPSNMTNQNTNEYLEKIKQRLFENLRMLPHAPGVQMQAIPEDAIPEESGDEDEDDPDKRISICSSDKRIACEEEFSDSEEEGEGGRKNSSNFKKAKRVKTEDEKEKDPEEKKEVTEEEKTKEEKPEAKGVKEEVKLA
Sequence of HDAC4 (P56524 whole entry): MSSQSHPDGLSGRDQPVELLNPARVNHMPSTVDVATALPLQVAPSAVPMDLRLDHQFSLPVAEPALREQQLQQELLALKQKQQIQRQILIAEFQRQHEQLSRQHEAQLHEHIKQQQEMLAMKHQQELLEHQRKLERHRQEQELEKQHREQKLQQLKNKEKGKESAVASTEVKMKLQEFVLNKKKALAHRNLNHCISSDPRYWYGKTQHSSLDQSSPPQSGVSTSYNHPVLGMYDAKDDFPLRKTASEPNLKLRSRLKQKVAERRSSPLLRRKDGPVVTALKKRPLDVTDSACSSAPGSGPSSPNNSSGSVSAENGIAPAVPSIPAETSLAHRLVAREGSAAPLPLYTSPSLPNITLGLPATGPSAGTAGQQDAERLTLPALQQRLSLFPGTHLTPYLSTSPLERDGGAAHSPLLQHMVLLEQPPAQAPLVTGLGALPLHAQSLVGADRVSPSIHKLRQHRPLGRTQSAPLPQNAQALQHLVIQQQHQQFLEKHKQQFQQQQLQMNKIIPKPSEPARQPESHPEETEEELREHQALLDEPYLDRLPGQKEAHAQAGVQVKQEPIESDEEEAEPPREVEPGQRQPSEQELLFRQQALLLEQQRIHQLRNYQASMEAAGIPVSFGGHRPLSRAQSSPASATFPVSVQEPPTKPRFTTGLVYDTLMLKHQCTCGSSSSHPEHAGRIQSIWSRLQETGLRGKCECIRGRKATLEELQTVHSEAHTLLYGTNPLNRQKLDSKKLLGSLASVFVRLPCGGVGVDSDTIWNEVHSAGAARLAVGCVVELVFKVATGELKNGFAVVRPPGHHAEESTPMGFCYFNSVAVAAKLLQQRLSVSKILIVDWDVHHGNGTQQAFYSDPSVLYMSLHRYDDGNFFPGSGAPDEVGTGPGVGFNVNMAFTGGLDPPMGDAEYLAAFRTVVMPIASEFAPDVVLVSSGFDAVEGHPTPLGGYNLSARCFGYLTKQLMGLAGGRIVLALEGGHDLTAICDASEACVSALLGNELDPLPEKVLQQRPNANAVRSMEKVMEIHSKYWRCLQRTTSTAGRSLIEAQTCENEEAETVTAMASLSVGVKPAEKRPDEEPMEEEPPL
Sequence of HDAC5 (Q9UQL6 whole entry): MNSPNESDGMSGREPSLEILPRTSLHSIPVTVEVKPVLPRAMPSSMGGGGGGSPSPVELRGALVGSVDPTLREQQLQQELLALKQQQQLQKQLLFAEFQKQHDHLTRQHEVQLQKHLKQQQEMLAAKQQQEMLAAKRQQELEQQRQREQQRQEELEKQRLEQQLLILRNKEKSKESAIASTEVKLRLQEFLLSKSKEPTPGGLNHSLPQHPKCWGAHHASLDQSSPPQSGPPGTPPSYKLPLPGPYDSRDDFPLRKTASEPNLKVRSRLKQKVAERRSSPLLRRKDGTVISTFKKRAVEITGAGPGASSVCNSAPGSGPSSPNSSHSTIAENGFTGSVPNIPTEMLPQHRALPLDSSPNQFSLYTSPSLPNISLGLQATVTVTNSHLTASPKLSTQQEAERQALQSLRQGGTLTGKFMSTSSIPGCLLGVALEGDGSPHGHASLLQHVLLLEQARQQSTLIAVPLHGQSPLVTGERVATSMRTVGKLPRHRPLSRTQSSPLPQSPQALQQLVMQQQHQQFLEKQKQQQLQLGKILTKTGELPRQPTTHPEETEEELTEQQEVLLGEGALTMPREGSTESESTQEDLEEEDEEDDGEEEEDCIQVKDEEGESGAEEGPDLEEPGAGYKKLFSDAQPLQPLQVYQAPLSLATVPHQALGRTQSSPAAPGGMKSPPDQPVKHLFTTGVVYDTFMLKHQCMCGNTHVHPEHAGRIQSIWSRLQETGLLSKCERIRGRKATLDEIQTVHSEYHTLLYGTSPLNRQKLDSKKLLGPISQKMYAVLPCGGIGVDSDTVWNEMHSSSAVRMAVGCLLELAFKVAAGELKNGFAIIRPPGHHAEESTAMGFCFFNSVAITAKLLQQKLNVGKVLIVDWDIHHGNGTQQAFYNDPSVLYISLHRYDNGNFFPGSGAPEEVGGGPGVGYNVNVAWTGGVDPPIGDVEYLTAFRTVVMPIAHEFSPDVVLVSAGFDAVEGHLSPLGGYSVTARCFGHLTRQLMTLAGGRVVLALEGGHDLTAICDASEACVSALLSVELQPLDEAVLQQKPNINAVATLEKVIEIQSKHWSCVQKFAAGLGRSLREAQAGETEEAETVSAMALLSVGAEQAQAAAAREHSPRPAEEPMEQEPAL
Sequence of HDAC3 (O15379 whole entry): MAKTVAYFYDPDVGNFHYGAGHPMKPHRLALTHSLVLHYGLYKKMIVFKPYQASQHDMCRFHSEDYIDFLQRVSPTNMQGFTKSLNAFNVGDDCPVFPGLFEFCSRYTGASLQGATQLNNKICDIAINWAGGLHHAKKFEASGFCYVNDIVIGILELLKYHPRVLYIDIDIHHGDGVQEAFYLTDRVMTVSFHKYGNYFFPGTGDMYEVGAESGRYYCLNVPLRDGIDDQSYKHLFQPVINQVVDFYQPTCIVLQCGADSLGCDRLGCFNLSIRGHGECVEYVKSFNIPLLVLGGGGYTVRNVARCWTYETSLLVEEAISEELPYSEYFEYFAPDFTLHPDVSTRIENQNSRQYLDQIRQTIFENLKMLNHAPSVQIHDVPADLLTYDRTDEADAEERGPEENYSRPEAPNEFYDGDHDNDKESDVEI
Sequence of HDAC3 (Q9Y618 395-489 partner limits assumed): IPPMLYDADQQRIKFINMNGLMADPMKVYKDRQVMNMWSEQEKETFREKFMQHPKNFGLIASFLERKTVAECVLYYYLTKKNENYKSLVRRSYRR

SMILES	cell death in D3 cells [1]	optimal concentration for apoptosis induction [2]	cell death in W2 cells [2]	inhibition of HDAC5 [3]	inhibition of HDAC3 [4]	inhibition of HDAC6 [5]	IC50 ([5]; 10-dose, 3-fold serial dilution, Compound 3 in duplicate starting at 120 µM, read-out: IC50)	IC50 ([5]; as stated in text and legend of Figure 6, read-out: IC50)	HILLSLOPE ([5]; curve fit)	IC50 ([5]; curve fit printed in the picture of Figure 6, read-out: HDAC 6: EC50)	inhibition of HDAC2 [6]	inhibition of HDAC4 [7]	inhibition of HDAC7 [8]	inhibition of HDAC9 [9]	inhibition of HDAC8 [10]	inhibition of HDAC1 [11]	cytotoxicity [12]	cytotoxicity [13]	cytotoxicity [14]
C=C1CC/C=C(\C)CC[C@@H]2C(C(CC3OC3(C)C)OC(C)=O)=CO[C@H](OC)[C@@H]12 (relative stereo) [Compound 2]	not in D3 cells	11.5 µM	induce measurable cell death in W2																
C=C1CC[C@@H]2O[C@@]2(C)CC[C@H](/C(=C/CC2OC2(C)C)CO)[C@H]1C(=O)OC (relative stereo) [Compound 3]	not in D3 cells	1.2 µM	induce measurable cell death in W2	did not significantly inhibit	did not significantly inhibit	inhibits selectively HDAC6 in high micromolar concentrations	80.9 µM	~80 µM	−1.19	80.9 µM	did not significantly inhibit	did not significantly inhibit	did not significantly inhibit	did not significantly inhibit	did not significantly inhibit	did not significantly inhibit			
C=C1CC[C@@H]2O[C@@]2(C)CC[C@H](/C(=C\CC2OC2(C)C)COC(C)=O)[C@H]1C(=O)OC (stereo partly shown) [xenitacin]																	most active compound in its group	most active compound in its group	most active compound in its group
